# In PubChem BioAssay AID1963853 (Molecular Pharmacology Branch, DTP, NCI, 2024):
# Tested on: 266295-075-R-J1-PDC spheroid viability
# Assay: Anticancer human tumor 266295-075-R-J1-PDC patient-derived head and neck squamous carcinoma cell line growth inhibition [POLQ]
# Conditions: spheroids with HUVEC and MSC; for IC50: curve of first compound; for viability, T/C: stronger effect = lower value
# Procedure, shortened: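 Complex spheroid viability model combining PDC tumour cells with endothelial (HUVEC) and MSC stromal cells. Novobiocin, ART-558 or RP6685 were tested singly and in combination with standard and investigational anticancer drugs. Each was titrated in half-log steps from near clinical Cmax, or from 10 microM where Cmax was unknown.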
# [1] = second compound 0.0316 µM, first compound 0.0316 µM
# [2] = second compound 0.0316 µM, first compound 0.1 µM
# [3] = second compound 0.0316 µM, first compound 0.316 µM
# [4] = second compound 0.0316 µM, first compound 1 µM
# [5] = second compound 0.0316 µM, first compound 3.16 µM
# [6] = second compound 0.0316 µM, first compound 10 µM
# [7] = second compound 0.1 µM, first compound 0.0316 µM
# [8] = second compound 0.1 µM, first compound 0.1 µM
# [9] = second compound 0.1 µM, first compound 0.316 µM
# [10] = second compound 0.1 µM, first compound 1 µM
# [11] = second compound 0.1 µM, first compound 3.16 µM
# [12] = second compound 0.1 µM, first compound 10 µM
# [13] = second compound 0.316 µM, first compound 0.0316 µM
# [14] = second compound 0.316 µM, first compound 0.1 µM
# [15] = second compound 0.316 µM, first compound 0.316 µM
# [16] = second compound 0.316 µM, first compound 1 µM
# [17] = second compound 0.316 µM, first compound 3.16 µM
# [18] = second compound 0.316 µM, first compound 10 µM
# [19] = second compound 1 µM, first compound 0.0316 µM
# [20] = second compound 1 µM, first compound 0.1 µM
# [21] = second compound 1 µM, first compound 0.316 µM
# [22] = second compound 1 µM, first compound 1 µM
# [23] = second compound 1 µM, first compound 3.16 µM
# [24] = second compound 1 µM, first compound 10 µM
# [25] = second compound 3.16 µM, first compound 0.0316 µM
# [26] = second compound 3.16 µM, first compound 0.1 µM
# [27] = second compound 3.16 µM, first compound 0.316 µM
# [28] = second compound 3.16 µM, first compound 1 µM
# [29] = second compound 3.16 µM, first compound 3.16 µM
# [30] = second compound 3.16 µM, first compound 10 µM
# [31] = second compound 10 µM, first compound 0.0316 µM
# [32] = second compound 10 µM, first compound 0.1 µM
# [33] = second compound 10 µM, first compound 0.316 µM
# [34] = second compound 10 µM, first compound 1 µM
# [35] = second compound 10 µM, first compound 3.16 µM
# [36] = second compound 10 µM, first compound 10 µM
# 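Further: spheroids exposed to compounds for seven days before readout.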
smiles,measurement,setting,value
O=C(c1cc(Cc2n[nH]c(=O)c3ccccc23)ccc1F)N1CCN(C(=O)C2CC2)CC1 + Cc1cccc(N(C)C(=O)C2C(O)CCN2c2nc(C)cc(C(F)(F)F)c2C#N)c1,IC50,second compound 0.0316 µM,> 10 µM
same,IC50,second compound 0.1 µM,> 10 µM
same,IC50,second compound 0.316 µM,> 10 µM
same,IC50,second compound 1 µM,> 10 µM
same,IC50,second compound 3.16 µM,> 10 µM
same,IC50,second compound 10 µM,> 10 µM
same,"viability, T/C",[1],91%
same,"viability, T/C",[2],104%
same,"viability, T/C",[3],80.3%
same,"viability, T/C",[4],85.6%
same,"viability, T/C",[5],93.2%
same,"viability, T/C",[6],104%
same,"viability, T/C",[7],95.5%
same,"viability, T/C",[8],103%
same,"viability, T/C",[9],91.4%
same,"viability, T/C",[10],89.6%
same,"viability, T/C",[11],99.3%
same,"viability, T/C",[12],78%
same,"viability, T/C",[13],86.6%
same,"viability, T/C",[14],86.5%
same,"viability, T/C",[15],91.7%
same,"viability, T/C",[16],91.4%
same,"viability, T/C",[17],107%
same,"viability, T/C",[18],75.3%
same,"viability, T/C",[19],121%
same,"viability, T/C",[20],110%
same,"viability, T/C",[21],89.5%
same,"viability, T/C",[22],92.1%
same,"viability, T/C",[23],82.5%
same,"viability, T/C",[24],85.9%
same,"viability, T/C",[25],92.8%
same,"viability, T/C",[26],97.1%
same,"viability, T/C",[27],93.5%
same,"viability, T/C",[28],110%
same,"viability, T/C",[29],121%
same,"viability, T/C",[30],89%
same,"viability, T/C",[31],101%
same,"viability, T/C",[32],99%
same,"viability, T/C",[33],95.1%
same,"viability, T/C",[34],107%
same,"viability, T/C",[35],115%
same,"viability, T/C",[36],94.6%
O=c1[nH]cc(F)c(=O)[nH]1 + Cc1cccc(N(C)C(=O)C2C(O)CCN2c2nc(C)cc(C(F)(F)F)c2C#N)c1,IC50,second compound 0.0316 µM,> 10 µM
same,IC50,second compound 0.1 µM,> 10 µM
same,IC50,second compound 0.316 µM,> 10 µM
same,IC50,second compound 1 µM,> 10 µM
same,IC50,second compound 3.16 µM,> 10 µM
same,IC50,second compound 10 µM,> 10 µM
same,"viability, T/C",[1],87.9%
same,"viability, T/C",[2],81%
same,"viability, T/C",[3],101%
same,"viability, T/C",[4],92.1%
same,"viability, T/C",[5],77.8%
same,"viability, T/C",[6],85.1%
same,"viability, T/C",[7],120%
same,"viability, T/C",[8],87.6%
same,"viability, T/C",[9],84.3%
same,"viability, T/C",[10],99.7%
same,"viability, T/C",[11],104%
same,"viability, T/C",[12],83.1%
same,"viability, T/C",[13],77.2%
same,"viability, T/C",[14],99.8%
same,"viability, T/C",[15],90.6%
same,"viability, T/C",[16],92.6%
same,"viability, T/C",[17],92.4%
same,"viability, T/C",[18],63.5%
same,"viability, T/C",[19],98.5%
same,"viability, T/C",[20],97.9%
same,"viability, T/C",[21],95.2%
same,"viability, T/C",[22],97.7%
same,"viability, T/C",[23],99.5%
same,"viability, T/C",[24],96.9%
same,"viability, T/C",[25],105%
same,"viability, T/C",[26],98.9%
same,"viability, T/C",[27],102%
same,"viability, T/C",[28],136%
same,"viability, T/C",[29],95.4%
same,"viability, T/C",[30],73.8%
same,"viability, T/C",[31],89.8%
same,"viability, T/C",[32],96.8%
same,"viability, T/C",[33],110%
same,"viability, T/C",[34],94.3%
same,"viability, T/C",[35],92.9%
same,"viability, T/C",[36],71.6%
